According to ChEMBL document CHEMBL1201862, “PubChem BioAssay data set” (2004):
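Briefly, cells in 96-well plates were exposed to five compound concentrations for 48 h, and endpoints were estimated by linear interpolation. Abbreviation: GI50, concentration required for 50% inhibition of growth.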 The source made the active and inactive calls. No stated cut-off is given here; in the data, active = GI50 up to about 1.1 µM and inactive = higher.

Tests used:
Assay in all cases: NCI tumour cell line growth inhibition, 48 h
NCI-H460 = tested on: NCI-H460
CAKI-1 = tested on: CAKI-1
KM12 = tested on: KM12
A498 = tested on: A498
UACC-62 = tested on: UACC-62
SN12C = tested on: SN12C
OVCAR-5 = tested on: OVCAR-5
MCF7 = tested on: MCF7
HT-29 = tested on: HT-29
SR = tested on: SR
M14 = tested on: M14
SK-OV-3 = tested on: SK-OV-3
ACHN = tested on: ACHN
NCI/ADR-RES = tested on: NCI/ADR-RES
SK-MEL-28 = tested on: SK-MEL-28
OVCAR-8 = tested on: OVCAR-8
SK-MEL-5 = tested on: SK-MEL-5
SF-268 = tested on: SF-268
SF-295 = tested on: SF-295
HL-60 = tested on: HL-60

Measured: GI50

C/C(=N/NC(=S)Nc1ccc(Cl)cc1)c1cccc(/C(C)=N\NC(=S)Nc2ccc(Cl)cc2)n1
inactive: NCI-H460 3.49 µM | CAKI-1 3.72 µM | KM12 3.66 µM | A498 20.4 µM | UACC-62 3.48 µM | SN12C 10.7 µM | OVCAR-5 20 µM | MCF7 1.93 µM | HT-29 10.2 µM | SR 1.19 µM | M14 1.79 µM | SK-OV-3 7.6 µM | ACHN 2.54 µM | NCI/ADR-RES 2.59 µM | SK-MEL-28 23.2 µM | OVCAR-8 1.85 µM | SK-MEL-5 1.86 µM | SF-268 23.8 µM | SF-295 3.34 µM

N#C/C(=C\c1ccccc1)c1nc(-c2cc3ccccc3oc2=O)cs1
inactive: NCI-H460 > 100 µM | CAKI-1 > 100 µM | KM12 75.3 µM | UACC-62 43.1 µM | SN12C > 100 µM | OVCAR-5 > 100 µM | HL-60 > 100 µM | MCF7 > 100 µM | HT-29 > 100 µM | SR > 100 µM | M14 > 100 µM | SK-OV-3 72.8 µM | ACHN 38.6 µM | NCI/ADR-RES > 100 µM | SK-MEL-28 > 100 µM | OVCAR-8 > 100 µM | SK-MEL-5 > 100 µM | SF-268 60 µM | SF-295 > 100 µM

O=C(CCc1cc(O)cc(O)c1)NCCc1cc(O)cc(OCc2ccccc2)c1
inactive: NCI-H460 20.4 µM | CAKI-1 > 100 µM | KM12 34 µM | A498 > 100 µM | UACC-62 32.1 µM | SN12C 39.3 µM | OVCAR-5 63 µM | MCF7 32.6 µM | HT-29 29 µM | SR 30.5 µM | M14 35.8 µM | SK-OV-3 59.4 µM | ACHN 24.7 µM | NCI/ADR-RES > 100 µM | SK-MEL-28 54.8 µM | OVCAR-8 34.3 µM | SK-MEL-5 19.1 µM | SF-268 29.6 µM | SF-295 32.9 µM

CCOC1OCCCC1Br (stereo not drawn)
inactive: NCI-H460 > 100 µM | CAKI-1 > 100 µM | KM12 > 100 µM | A498 > 100 µM | UACC-62 72.1 µM | SN12C > 100 µM | OVCAR-5 > 100 µM | MCF7 > 100 µM | HT-29 > 100 µM | SR > 100 µM | M14 > 100 µM | SK-OV-3 > 100 µM | ACHN > 100 µM | NCI/ADR-RES > 100 µM | SK-MEL-28 > 100 µM | OVCAR-8 > 100 µM | SK-MEL-5 > 100 µM | SF-268 > 100 µM | SF-295 > 100 µM

Cn1c(-c2ccc(-c3cc(-c4cccs4)c(-c4cccs4)n3C)cc2)cc(-c2cccs2)c1-c1cccs1
inactive: NCI-H460 > 100 µM | CAKI-1 > 100 µM | KM12 > 100 µM | UACC-62 > 100 µM | SN12C > 100 µM | HL-60 > 100 µM | MCF7 > 100 µM | HT-29 > 100 µM | SR > 100 µM | M14 > 100 µM | SK-OV-3 > 100 µM | ACHN > 100 µM | NCI/ADR-RES > 100 µM | SK-MEL-28 > 100 µM | OVCAR-8 > 100 µM | SK-MEL-5 > 100 µM | SF-268 > 100 µM | SF-295 > 100 µM

CCOC(=O)c1[nH]cc(C)c1-c1ccc2c(-c3ccccc3)nc3ccccc3n12
inactive: NCI-H460 2.92 µM | CAKI-1 5.89 µM | KM12 3.45 µM | A498 2.84 µM | UACC-62 2.73 µM | SN12C 3.37 µM | OVCAR-5 15.8 µM | MCF7 2.1 µM | HT-29 2.54 µM | SR 1.62 µM | M14 5.55 µM | SK-OV-3 4.4 µM | ACHN 4.01 µM | NCI/ADR-RES 2.51 µM | SK-MEL-28 3.89 µM | OVCAR-8 4.25 µM | SK-MEL-5 2.37 µM | SF-268 3.94 µM | SF-295 3.52 µM

O=C1OC([C@H](O)c2cccnc2)c2ccccc21 (stereo partly drawn)
inactive: NCI-H460 > 10 µM | CAKI-1 > 10 µM | KM12 > 10 µM | UACC-62 > 10 µM | SN12C > 10 µM | OVCAR-5 > 10 µM | HL-60 > 10 µM | MCF7 > 10 µM | HT-29 > 10 µM | SR > 10 µM | M14 > 10 µM | SK-OV-3 > 10 µM | ACHN > 10 µM | NCI/ADR-RES > 10 µM | SK-MEL-28 > 10 µM | OVCAR-8 > 10 µM | SK-MEL-5 > 10 µM | SF-268 > 10 µM | SF-295 > 10 µM

CCOC(=O)c1c(-c2ccccc2)nc2c(OC)nccn12
inactive: NCI-H460 > 100 µM | CAKI-1 > 100 µM | KM12 > 100 µM | UACC-62 > 100 µM | SN12C > 100 µM | HL-60 > 100 µM | MCF7 > 100 µM | HT-29 > 100 µM | SR > 100 µM | M14 > 100 µM | SK-OV-3 > 100 µM | NCI/ADR-RES > 100 µM | SK-MEL-28 > 100 µM | OVCAR-8 > 100 µM | SK-MEL-5 61.1 µM | SF-268 > 100 µM | SF-295 > 100 µM

C/C(=N\NC(=O)/C(C#N)=C\c1ccc(N(CCC#N)CCC#N)cc1)c1ccccc1
inactive: NCI-H460 > 10 µM | CAKI-1 > 10 µM | KM12 > 10 µM | UACC-62 > 10 µM | SN12C > 10 µM | HL-60 > 10 µM | MCF7 > 10 µM | HT-29 > 10 µM | SR > 10 µM | M14 > 10 µM | SK-OV-3 > 10 µM | ACHN > 10 µM | NCI/ADR-RES > 10 µM | SK-MEL-28 > 10 µM | OVCAR-8 > 10 µM | SK-MEL-5 > 10 µM | SF-268 > 10 µM | SF-295 > 10 µM

O=C(CCCn1ccnc1[N+](=O)[O-])NCCn1cnc([N+](=O)[O-])c1
inactive: NCI-H460 > 100 µM | CAKI-1 > 100 µM | KM12 > 100 µM | UACC-62 > 100 µM | SN12C > 100 µM | OVCAR-5 > 100 µM | HL-60 > 100 µM | MCF7 > 100 µM | HT-29 > 100 µM | SR > 100 µM | M14 > 100 µM | SK-OV-3 > 100 µM | ACHN > 100 µM | NCI/ADR-RES > 100 µM | SK-MEL-28 > 100 µM | OVCAR-8 > 100 µM | SK-MEL-5 > 100 µM | SF-268 > 100 µM | SF-295 > 100 µM

CC(C)c1cc(=O)[nH]c2cc(N)ccc12
inactive: NCI-H460 > 100 µM | CAKI-1 > 100 µM | KM12 > 100 µM | A498 > 100 µM | UACC-62 93.8 µM | SN12C > 100 µM | OVCAR-5 > 100 µM | MCF7 > 100 µM | HT-29 > 100 µM | SR > 100 µM | M14 > 100 µM | ACHN > 100 µM | NCI/ADR-RES > 100 µM | SK-MEL-28 > 100 µM | OVCAR-8 > 100 µM | SK-MEL-5 > 100 µM | SF-295 > 100 µM
